“And” between values parts separate entries of the source, which are not always exact repeats. Identical values can stand only once.
Experiments:
Type in all cases: cell-based
[1] = tested on: Staphylococcus aureus ATCC 6538; experiment: Hydrogen peroxide exposed or not exposed to photons applied to inoculated target microbes; conditions: contact time 5 Minutes; for CFU/ml: single replicates
Experimental: The test substances were hydrogen peroxide at 1 ppm and at 0.3%, which were exposed or not exposed to photons of 0.01 nm through 845 nm and applied to target of microbes, which included a carrier for the inoculated target microbes such as agar with a viable bacteria concentration of Staphylococcus aureus ATCC 6538. The control for this test was a similar inoculated plate and it was treated in the same manor but there was no application of photons to the oxidizing agent.

E. coli ATCC 11229 = experiment: Carrier test of residual antimicrobial effect, 4 weeks post photon exposure; conditions: contact time 10 Minutes, 4 weeks post exposure to radiation
[2] = tested on: viable cells (microbial counts); experiment: Independent lab testing of the HVAC antimicrobial system utilizing Photon Augmented Oxidizing Agents (coupons, ambient air); conditions: 1 part per million, 5 minute contact time with the ambient air
Excerpt: All test samples were compared against the Control provided. (Independent lab testing of the HVAC antimicrobial system utilizing Photon Augmented Oxidizing Agents).

Row | Structure (SMILES) | Average CFU/ml [1] [CFU/ml] | Average Log10 Reduction Compared to Controls [1] | Average Percent Reduction Compared to Controls [1] | CFU/ml [1] | Average Log10 Reduction Compared to Controls (E. coli ATCC 11229) [Log10] | Average Percent Reduction Compared to Controls (E. coli ATCC 11229) [%] | CFU/Carrier (E. coli ATCC 11229) [CFU/Carrier] | Average Percent Reduction Compared to Controls (E. coli ATCC 11229; listed as control substance) [%] | microbial reduction [2]
1 | OO [0.3% No photon emission, hydrogen peroxide] | 4.05E+06 | No Reduction | No Reduction | 4.10E+06 CFU/ml and 4.00E+06 CFU/ml | – | – | – | – | –
2 | OO [1 PPM No photon emission, hydrogen peroxide] | 4.05E+06 | No Reduction | No Reduction | 4.10E+06 CFU/ml | – | – | – | – | –
3 | OO [Control Substance, hydrogen peroxide] | – | – | – | – | 0.11 | 23.08 | 3.00E+04 | 23.08 | –
4 | OO [standard hydrogen peroxide, hydrogen peroxide] | – | – | – | – | – | – | – | – | little or no microbial reduction

Source: patent publication US20230191357A1, “SYSTEM AND METHOD FOR ENHANCING THE REACTION POTENTIAL OF PRODUCTS GENERATED FROM IONIZATION, PHOTON-ENHANCED THERMIONIC EMISSION, MULTI PHOTON ABSORPTION, PHOTOOXIDATION, PHOTOCATALYTIC, AND PHOTOCHEMICAL REACTIONS WITH OXIDIZING AGENTS” (Bis Science LLC, priority 2021, published 2023)
